Data published in patent US6852316B2, “Cancer treatment” (Queen Mary & Westfield College, priority 1998, dated 2005).
Entries after “also recorded” stand apart in the source; their conditions may differ.

Tests used:
Format in all cases: cell-based
β1 integrin [1] = assay: 125I labelling and immunoprecipitation of β1 integrin, SDS-PAGE autoradiography; settings: MCF-7 cells, A-II 10^−5 M for 24 hours, compared to control, non-reducing conditions
Protocol: Immunoprecipitation is a technique for the detection and quantification of target protein. It comprises the five steps of radiolabelling of the cell-membrane proteins, cell lysis, formation of the specific antibody-antigen complexes, extraction of these complexes and analysis of the radiolabelled target proteins contained within the immunoprecipitation. All experiments were performed in triplicate.
For immunoprecipitation experiments, MCF-7 cells were cultured in 5% FBS-supplemented MEM. When sub-confluent, the medium was removed and the cells washed with phosphate buffered saline (PBS) (0.15 M sodium chloride, 20 mM sodium monophosphate; pH 7.5). The medium was then replaced with serum-free MEM and treated with angiotensin-II (A-II) at a concentration of 10^−5 M for 24 hours. Control cells were cultured in serum-free medium only. On this occasion the cells were harvested not by trypsinisation, which may impair the immunoprecipitation process, but with a cell scraper. They were then gently passed repeatedly through a narrow pipette, to break down cell clusters, and centrifuged at 900 rpm per ten minutes.
The cell pellets as above were taken up in PBS and counted with the haemocytometer. Trypan blue exclusion was employed so that 1-2×10^6 viable cells were taken up in each 1 ml aliquot. […]

breast cancer cells [2] = assay: Breast cancer cell growth in culture, light microscopy
β1 integrin [3] = assay: Immunocytochemistry for β1 integrin expression in MCF-7 cancer cell line; settings: MCF-7 cells treated with A-II at 10^−5 M, versus control
Protocol: Immunocytochemical straining of both receptors was based on the standard streptavidinbiotin peroxidase method. For the optimal working concentration of both antibodies serial dilutions were performed. The AT1R antibody 6313/G2 in the range 1:1 to 1:500 and for anti-β1 integrin between 1:10 and 1:500.
For integrin B1 receptor straining both with and without A-II pre-treatment, harvested cells were plated onto sterile microscope slides within slide culture wells (Heraeus Instruments GmbH, Osterode am Harz, Germany) and incubated with fresh BCM. When sub-confluent the medium was replaced with serum-free BCM to which was added Angiotensin-II (A-II), or not in the case of controls which were subjected to otherwise identical preparation and straining. Angiotensin-II (A-II) was added in the concentration range 10^−5M to 10^−9M and incubated for 24 hours. The medium was then removed, the slides rinsed with PBS, air dried and stored frozen as above.
The slides, prepared as above, were removed from frozen storage and placed directly into 100% acetone (British Drug Houses) at −10° C. for 10 minutes. They were then air-dried for 10 minutes and rehydrated in 0.05 M Tris-buffered saline (TBS)(0.05 M sodium chloride, 0.05 M Trizma base, 36 mM hydrochloric acid, pH 7.6) twice for 3 minutes each. […]

breast cancer cells [4] = assay: Invasion chamber assay, IGF-I stimulated breast cancer cell invasion
Protocol: The effect of angiotensin-II (A-II) in inhibiting growth factor-induced stimulated cancer cell invasiveness was studied as a model system and the results are shown in FIG. 3. The study was carried out using an invasion chamber in which two compartments are separated by a perforated membrane coated in matrix protein. A chemoattractant, IGF-I, was added to the medium on one side of the chamber, and the breast cancer cells to the other. Invasiveness was measured by counting the cells that migrated from one chamber to the other.

Asp-Arg-Val-Tyr-Ile-His-Pro-Phe (DRVYIHPF; Sequence Source Uncertain) [angiotensin-II]
β1 integrin expression (density of protein band on gel autoradiograph) (β1 integrin [1]): relative increase in density; also recorded: increased expression
stimulation of cell growth (breast cancer cells [2]; breast cancer cells in culture): did not stimulate cell growth
size of cell clusters in culture (breast cancer cells [2]; grown in presence of angiotensin-II versus control cultures, light microscopy): larger clusters of cells
β1 integrin staining (expression of β1 integrin protein) (β1 integrin [3]): increase in staining
reduction in mean invasion (breast cancer cells [4]; A-II pre-treatment versus control, IGF-I chemoattractant): tenfold reduction
mean invasion (breast cancer cells [4]; cells treated with A-II prior to invasion assay, chemoattractant IGF-I, control 1.58%, p=0.0011): 0.15%
